Data published in patent US20110034441A1, “INDAZOLES AS WNT/B-CATENIN SIGNALING PATHWAY INHIBITORS AND THERAPEUTIC USES THEREOF” (EPITHERIX, LLC, priority 2009, published 2011).

Tested on: Wnt
Experiment: Wnt reporter screening assay: SP5 promoter (TCF/LEF) firefly luciferase in SW480 cells
Type: cell-based
Settings: Homo sapiens; SW480 colon cancer cells with SP5 promoter luciferase reporter; 24 hours after compound addition; normalized to DMSO; read-out: Wnt inhibition, IC50
Source text: Another screening assay for Wnt activity is described as follows. Reporter cell lines can be generated by stably transducing cells of cancer cell lines (e.g., colon cancer) with a lentiviral construct that include a wnt-responsive promoter driving expression of the firefly luciferase gene.
Lentiviral constructs can be made in which the SP5 promoter, a promoter having eight TCF/LEF binding sites derived from the SP5 promoter, is linked upstream of the firefly luciferase gene. The lentiviral constructs can also include a hygromycin resistance gene as a selectable marker. The SP5 promoter construct can be used to transduce SW480 cells, a colon cancer cell line having a mutated APC gene that generates a truncated APC protein, leading to de-regulated accumulation of β-catenin.
Cultured SW480 cells bearing a reporter construct can be distributed at approximately 10,000 cells per well into 384 well multiwell plates. Compounds from a small molecule compound library can then be added to the wells in half-log dilutions using a three micromolar top concentration. A series of control wells for each cell type receive only buffer and compound solvent. Twenty-four hours after the addition of compound, reporter activity for luciferases can be assayed, for example, by addition of the BrightGlo luminescence reagent (Promega) and the Victor3 plate reader (Perkin Elmer). Readings can be normalized to DMSO only treated cells, and normalized activities can then be used in the IC50 calculations.

Compound	IC50
CCC(CC)NC(=O)c1ccc2[nH]nc(-c3nc4ccccc4[nH]3)c2c1 [Compound 1, 3-(1H-benzo[d]imidazol-2-yl)-N-(pentan-3-yl)-1H-indazole-5-carboxamide]	0.2 to 0.31 µM
O=C(NC1CCCN(S(=O)(=O)c2ccccc2F)C1)c1ccc2[nH]nc(-c3nc4ccccc4[nH]3)c2c1 (stereo not drawn) [Compound 2]	0.5 µM
CN1CCC(CNC(=O)c2ccc3[nH]nc(-c4nc5ccccc5[nH]4)c3c2)C1 (stereo not drawn) [Compound 3]	0.58 µM
O=C(NC1Cc2ccccc2C1)c1ccc2[nH]nc(-c3nc4ccccc4[nH]3)c2c1 [Compound 4]	0.6 µM
CN1CCCCC1CNC(=O)c1ccc2[nH]nc(-c3nc4ccccc4[nH]3)c2c1 (stereo not drawn) [Compound 5]	0.63 µM
CS(=O)(=O)N1CCCC(NC(=O)c2ccc3[nH]nc(-c4nc5ccccc5[nH]4)c3c2)C1 (stereo not drawn) [Compound 7]	0.8 µM
CC(C)CC(=O)N1CC2CC1CN2C(=O)c1ccc2[nH]nc(-c3nc4ccccc4[nH]3)c2c1 (stereo not drawn) [Compound 8]	0.93 µM
O=C(NC1CCCN(S(=O)(=O)c2cccc(F)c2)C1)c1ccc2[nH]nc(-c3nc4ccccc4[nH]3)c2c1 (stereo not drawn) [Compound 9]	1 µM
O=C(NC1CCc2ccccc21)c1ccc2[nH]nc(-c3nc4ccccc4[nH]3)c2c1 (stereo not drawn) [Compound 10]	1 µM
COc1ccc(S(=O)(=O)N2CCCC(NC(=O)c3ccc4[nH]nc(-c5nc6ccccc6[nH]5)c4c3)C2)cc1 (stereo not drawn) [Compound 11]	1.3 µM
O=C(NCC1(O)CCCCC1)c1ccc2[nH]nc(-c3nc4ccccc4[nH]3)c2c1 [Compound 12]	1.6 µM
CS(=O)(=O)N1CCCC(CNC(=O)c2ccc3[nH]nc(-c4nc5ccccc5[nH]4)c3c2)C1 (stereo not drawn) [Compound 13]	1.8 µM
Cc1ccccc1OC1CCN(C(=O)c2ccc3[nH]nc(-c4nc5ccccc5[nH]4)c3c2)C1 (stereo not drawn) [Compound 14]	1.9 µM
Cc1ccccc1C1CCCN1C(=O)c1ccc2[nH]nc(-c3nc4ccccc4[nH]3)c2c1 (stereo not drawn) [Compound 15]	3 µM
O=C(c1ccc2[nH]nc(-c3nc4ccccc4[nH]3)c2c1)N1CCCC1c1ccccc1 (stereo not drawn) [Compound 16]	3.1 µM
CC[C@H](C)[C@@H](CO)NC(=O)c1ccc2[nH]nc(-c3nc4ccccc4[nH]3)c2c1 [Compound 17]	0.75 µM
Cc1ccccc1O[C@@H]1CCN(C(=O)c2ccc3[nH]nc(-c4nc5ccccc5[nH]4)c3c2)C1 [Compound 18]	1.9 µM
O=C(NC1CCN(Cc2ccccc2)CC1)c1ccc2[nH]nc(-c3nc4ccccc4[nH]3)c2c1 [Compound 19, 3-(1H-benzo[d]imidazol-2-yl)-N-(1-benzylpiperidin-4-yl)-1H-indazole-5-carboxamide]	0.33 to 0.4 µM
O=C(c1ccc2[nH]nc(-c3nc4ccccc4[nH]3)c2c1)N1CCCC1 [Compound 20, (3-(1H-benzo[d]imidazol-2-yl)-1H-indazol-5-yl)(pyrrolidin-1-yl)methanone]	0.606 µM
Cc1ccc(CN2CCN(C(=O)c3ccc4[nH]nc(-c5nc6ccccc6[nH]5)c4c3)CC2)cc1 [Compound 21, (3-(1H-benzo[d]imidazol-2-yl)-1H-indazol-5-yl)(4-(4-methylbenzyl)piperazin-1-yl)methanone]	5.3 µM
CN1CCCN(C(=O)c2ccc3[nH]nc(-c4nc5ccccc5[nH]4)c3c2)CC1 [Compound 22, (3-(1H-benzo[d]imidazol-2-yl)-1H-indazol-5-yl)(4-methyl-1,4-diazepan-1-yl)methanone]	1.85 µM
O=C(c1ccc2[nH]nc(-c3nc4ccccc4[nH]3)c2c1)N1CCOCC1 [Compound 23, (3-(1H-benzo[d]imidazol-2-yl)-1H-indazol-5-yl)(morpholino) methanone]	> 10 µM
O=C(c1ccc2[nH]nc(-c3nc4ccccc4[nH]3)c2c1)N1CCSCC1 [Compound 24, (3-(1H-benzo[d]imidazol-2-yl)-1H-indazol-5-yl)(thiomorpholino)methanone]	8 µM
CN1CCN(C(=O)c2ccc3[nH]nc(-c4nc5ccccc5[nH]4)c3c2)CC1 [Compound 25, [3-(1H-benzimidazol-2-yl)-1H-indazole-5-yl]-(4-methyl-piperazin-1-yl)-methanone]	> 10 µM
